Source: patent US11352331B2, “Crystal and salt of 4-(naphthalen-1-yl)-4H-1,2,4-triazole compound and preparation method therefor” (MEDSHINE DISCOVERY INC., priority 2017, dated 2022)
pIC50: −log10 of the molar value. Like-named read-outs stand apart in the source and are kept apart here. Blank lines part the entries; values can stand above or below the molecule they belong to.

Columns and labels:
[1] = Pharmacokinetics in cynomolgus monkeys after IV and PO administration; type: in vivo; conditions: for half-life: read-out: Half-life T1/2 (converted); for Cmax: read-out: Peak concentration Cmax; for MRT inf: read-out: Residence time MRT0-inf; for Tmax: read-out: Time to peak Tmax; for Mutual transformation between the two axially chiral isomers in vivo: circulation system; for Vd: read-out: Apparent volume of distribution Vdss; for clearance: read-out: Clearance rate Cl; for C0: read-out: Initial concentration C0
Experimental: 24 healthy adult male cynomolgus monkeys were divided into 8 groups (there were IV and PO groups for each compound) with 3 animals per group.
An appropriate amount of the samples was weighted and dissolved in a certain amount of DMSO by ultrasound, followed by addition of PEG400 solution to obtain clear solutions (DMSO/PEG400/H2O (5/40/55)) of the compounds to be tested with a concentration of 2 mg/mL for IV administration.
An appropriate amount of the samples was weighted and dissolved in a certain amount of DMSO by ultrasound, followed by addition of 0.5% MC solution to obtain suspensions (DMSO/0.5% MC (5/95)) of the compounds to be tested with a concentration of 2 mg/mL for PO administration.
24 male cynomolgus monkeys were divided into 8 groups with 3 animals per group, and the drugs were administered through IV and PO after the animals had been fasting overnight. The dose for IV administration was 2 mg/kg and the dosing volume was 1 mL/kg; the dose for PO administration was 10 mg/kg and the dosing volume was 5 mL/kg.
In the IV administration groups, approximately 200 μL of blood was collected 0.083, 0.25, 0.5, 1, 2, 4, 6, 8, and 24 hours after administration; the collected blood samples were added into anticoagulation tubes containing K2-EDTA and centrifuged at 3000 rpm for 15 minutes; the plasma was isolated and stored at −80° C. In the PO administration groups, the blood was collected 0.25, 0.5, 1, 2, 4, 6, 8, and 24 hours after administration, and other operations were the same as in the IV administration group. After the plasma samples were pre-treated to precipitate the protein, the drug concentration in the plasma was determined by LC/MS/MS method. The linear range of the analysis method was 20.00-6000 nM. In PO administration group, urine was collected 0-24 hours after administration, and the drug concentration in the urine was determined by LC/MS/MS method. The linear range of the analysis method was 20.00-6000 nM.

Liver cells [2] = conditions: Rat; cited from earlier work
[3] = Liver microsomes, Human; cited from earlier work
human liver cells = test: Metabolite detection after incubation in human liver cells for 120 minutes (LC-UV-MSn); type: in vitro ADME; conditions: for UV area percentage: 10 μM
Experimental: The objective of this experiment is detect the metabolites of the compounds after incubation in human liver cells for 120 minutes using LC-UV-MS^n (n=1-2). After data collection, MetaboLynx™ software was used to analyze MS and MS^2 data.
After the cells were incubated with the samples for 2 hours, protein was precipitated using acetonitrile containing formic acid and then the mixture was centrifuged. The supernatant was taken out and blow-dried with nitrogen, and then redissolved and injected for analysis.

[4] = Liver microsomes, Rat; cited from earlier work
Liver cells [5] = conditions: Monkey; cited from earlier work
[6] = human, 0-144 hour, after lesinurad, cited from earlier work
[7] = Liver microsomes, Monkey; cited from earlier work
Liver cells [8] = conditions: Human; cited from earlier work
[9] = Liver microsomes, Dog; cited from earlier work
Liver cells [10] = conditions: Dog; cited from earlier work
URAT-1 = biological target: T1, URAT-1 (Homo sapiens, UniProt Q96S37); test: Inhibition of 14C-uric acid uptake in MDCK cells stably transfected with URAT-1 gene; type: cell-based; conditions: MDCK cells stably transfected with URAT-1, substrate 14C-uric acid 50 μM; read-out: IC50 of the inhibitory effect on URAT-1
T1 construct: expressed in transfected cells
T1 sequence (Q96S37 1-553): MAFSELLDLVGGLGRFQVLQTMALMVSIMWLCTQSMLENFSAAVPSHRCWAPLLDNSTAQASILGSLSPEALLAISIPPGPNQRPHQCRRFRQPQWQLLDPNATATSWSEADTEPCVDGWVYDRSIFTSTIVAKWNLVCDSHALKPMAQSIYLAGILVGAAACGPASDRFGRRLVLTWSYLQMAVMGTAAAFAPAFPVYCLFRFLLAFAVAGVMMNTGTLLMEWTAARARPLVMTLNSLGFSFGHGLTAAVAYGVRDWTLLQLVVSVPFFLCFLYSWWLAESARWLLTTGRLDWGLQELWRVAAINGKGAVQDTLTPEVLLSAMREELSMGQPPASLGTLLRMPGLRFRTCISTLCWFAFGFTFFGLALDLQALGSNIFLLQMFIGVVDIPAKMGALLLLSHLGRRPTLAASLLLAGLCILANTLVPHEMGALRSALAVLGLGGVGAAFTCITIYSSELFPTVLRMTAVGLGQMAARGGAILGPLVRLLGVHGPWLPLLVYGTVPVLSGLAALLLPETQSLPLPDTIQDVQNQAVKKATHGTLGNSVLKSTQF
Experimental: The IC50 values of the compounds in inhibiting uric acid reabsorption were determined using MDCK (canine kidney cell) cell line stably transfected with DRAT-1 (uric acid transporter) gene.
DRAT-1 (MDCK) cell line: MDCK cells stably transfected with URAT-1 gene.
Cell culture medium: MEM (minimum essential medium Eagle) medium supplemented with 10% FBS (fetal bovine serum), 1% sodium pyruvate and 250 μg/mL G418 (geneticin).
1) The supernatant of the cell culture medium was removed by aspiration and the cells were rinsed with 10 mL PBS (phosphate buffered saline solution).
2) Preheated trypsin was added into the rinsed cell culture flask, and then the flask was rotated to make the trypsin evenly cover the bottom of the flask and the cells were digested at room temperature.
3) 10-15 mL of culture medium was used to suspend the cells in each T150 flask. 0.1 mL of the cells was sucked out and 2-fold diluted with trypan blue solution, and then the cells were counted. […]
^14C labelled-uric acid solution was diluted and added into the cell plate to obtain a final concentration of 50 μM. […] After adding the scintillation liquid, the signal was read in a liquid scintillation counter Tri-Carb.
According to the luminescent data, the inhibitory effect of the compounds on URAT-1 was analyzed, and the percent inhibition was calculated. […]

[11] = Solid stability test of the crystal form A of compound 1; type: physicochemical; conditions: high temperature, high humidity and strong light
Excerpt: Samples placed under high temperature and high humidity conditions were sealed with aluminum foil paper and small holes were punched in the aluminum foil paper to ensure that the sample could fully contact with ambient air; samples placed under strong light conditions were sealed with threaded caps. The samples placed under different conditions were sampled and tested on the 5th day and 10th day (XRPD and HPLC), and the test results were compared with the initial test results obtained on day 0.

OAT-4 = biological target: T2, OAT-4 (Homo sapiens, UniProt Q9NSA0); test: Inhibition of substrate uptake in MDCK cells overexpressing OAT-4; type: cell-based; conditions: MDCK-OAT4 cells
T2 construct: expressed in transfected cells; host or cells: MDCK (canine kidney) cells; the empty-vector control is pcDNA3.1
T2 sequence (Q9NSA0 1-550): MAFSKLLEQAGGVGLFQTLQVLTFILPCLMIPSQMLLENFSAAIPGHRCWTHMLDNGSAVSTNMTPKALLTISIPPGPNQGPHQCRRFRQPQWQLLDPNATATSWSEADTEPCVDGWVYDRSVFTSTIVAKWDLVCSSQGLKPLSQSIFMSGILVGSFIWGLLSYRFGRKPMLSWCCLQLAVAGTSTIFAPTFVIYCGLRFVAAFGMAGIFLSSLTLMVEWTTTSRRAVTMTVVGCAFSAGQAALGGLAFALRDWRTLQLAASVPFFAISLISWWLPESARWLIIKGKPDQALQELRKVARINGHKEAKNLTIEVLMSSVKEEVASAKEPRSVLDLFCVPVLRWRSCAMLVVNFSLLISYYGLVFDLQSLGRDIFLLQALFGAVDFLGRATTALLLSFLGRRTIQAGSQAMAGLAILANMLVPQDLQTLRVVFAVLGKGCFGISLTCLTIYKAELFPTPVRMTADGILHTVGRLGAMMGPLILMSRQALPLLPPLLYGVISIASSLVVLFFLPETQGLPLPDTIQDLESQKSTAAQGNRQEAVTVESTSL
Experimental: The IC50 values of the compounds in inhibiting reabsorption of specific substrates were determined using MDCK (canine kidney cell) cell line stably transfected with OAT-4 (organic anion transporter-4) gene.
The cell culture medium used in the intake inhibition experiment was DMEM (cell essential medium culture medium) supplemented with 10% FBS (containing penicillin and streptomycin). […] The cell suspensions were adjusted to obtain a density of 2.0-3.0×10^5 cells/mL with medium, and then inoculated into 24-well cell culture plates in an amount of 1 mL/well. The cells were cultured in an incubator with 5% CO2 and saturated air humidity at 37° C. for 2-3 days, after which the cells grew over the wells. […]
The uptake value of the transporter cells in the group containing only the radiolabeled substrate (deducting the uptake value U0 cells with empty vector in the background group) was defined as 100% (control, Uc), which was counted as a standard for the calculation of the percentage (%) of the intake value U (after deducting the background) in each administration group after adding the tested compounds against the intake value Uc in the control group, and the inhibitory rate (IR) of each concentration on the activity of the transporter was calculated to express the extent of the inhibitory effect of the compounds on the transporters. […]

[12] = male, cynomolgus monkey, plasma, po, 10 mg/kg, PO, 10 mg/kg
[13] = PO, 10 mg/kg, listed as Compound 1a (crystal form B)
[14] = male, cynomolgus monkey, plasma, iv, 2 mg/kg, IV, 2 mg/kg
[15] = IV, 2 mg/kg, listed as Compound 1b (crystal form C)
[16] = PO, 10 mg/kg, listed as Compound 1b (crystal form C)

Area under the curve AUG0-inf ([1]; PO, 10 mg/kg): 69.3 µM·h | Mean drug concentration in urine (0-24 h) Curine, 0-24 h ([1]; PO, 10 mg/kg): 71.622 µM | half-life [1, 12]: 3.78 h | Cmax [1, 12]: 37.2 µM | MRT inf [1, 12]: 3.44 h | Tmax [1, 12]: 0.58 h | UV area percentage (human liver cells): 95.60%
Compound: O=C(O)CSc1nnc(Br)n1-c1ccc(C2CC2)c2ccccc12 (racemic) [(±)-Lesinurad, lesinurad, reference compound]
Amount of lesinurad and metabolites (Total 100) (Liver cells [2]): 100% | Amount of lesinurad and metabolites (Total 100) [3]: 100% | Amount of lesinurad and metabolites (Total 100) [4]: 100% | Amount of lesinurad and metabolites (Total 100) (Liver cells [5]): 98.1% | Percentage of the administered dose ([6]; Faeces): 1.5% | Percentage of the administered dose ([6]; Urine): 31.3% | Amount of lesinurad and metabolites (Total 100) [7]: 92.1% | Amount of lesinurad and metabolites (Total 100) (Liver cells [8]): 92.1% | Amount of lesinurad and metabolites (Total 100) [9]: 100% | Amount of lesinurad and metabolites (Total 100) (Liver cells [10]): 100%

Area under the curve AUG0-inf ([1]; IV, 2 mg/kg, listed as Compound 1a (crystal form B)): 15.709 µM·h | Area under the curve AUG0-inf [1, 13]: 89.77 µM·h | Bioavailability F [1, 13]: 132% | Mean drug concentration in urine (0-24 h) Curine, 0-24 h [1, 13]: 54.403 µM | Mutual transformation between the two axially chiral isomers in vivo [1]: no mutual transformation | Vd [1, 14]: 0.533 L/kg | clearance [1, 14]: 4.88 mL/min/kg | half-life [1, 14]: 3.39 h | C0 [1, 14]: 32 µM | MRT inf [1, 14]: 1.83 h | half-life [1, 12]: 4.1 h | Cmax [1, 12]: 22.6 µM | MRT inf [1, 12]: 4.65 h | Tmax [1, 12]: 1.33 h | Metabolite detection (human liver cells): no metabolite was detected | UV area percentage (human liver cells): 100%
Compound: O=C(O)CSc1nnc(Br)n1-c1c(Cl)cc(C2CC2)c2ccccc12 (single isomer, unassigned) [Compound 1a]

Apparent volume of distribution Vdss [1, 15]: 0.661 L/kg | Area under the curve AUG0-inf [1, 15]: 16.092 µM·h | Clearance rate Cl [1, 15]: 4.78 mL/min/kg | Half-life T1/2 [1, 15]: 4.28 h | Residence time MRT0-inf [1, 15]: 2.34 h | C0 ([1]; IV, 2 mg/kg, listed as Compound 1b (crystal form C), 2 mg/kg): 42.1 µM | Area under the curve AUG0-inf [1, 16]: 62.456 µM·h | Bioavailability F [1, 16]: 77.6% | Half-life T1/2 [1, 16]: 4.46 h | Residence time MRT0-inf [1, 16]: 5.74 h | Time to peak Tmax [1, 16]: 2.33 h | Cmax ([1]; PO, 10 mg/kg, listed as Compound 1b (crystal form C), 10 mg/kg): 13.2 µM | Mean drug concentration in urine (0-24 h) Curine, 0-24 h [1, 16]: 7.976 µM | Mutual transformation between the two axially chiral isomers in vivo [1]: no mutual transformation | pIC50 (URAT-1): < 4.70 | Metabolite detection (human liver cells): no metabolite was detected | UV area percentage (human liver cells): 100%
Compound: O=C(O)CSc1nnc(Br)n1-c1c(Cl)cc(C2CC2)c2ccccc12 (single isomer, unassigned) [Compound 1b]

Area under the curve AUG0-inf ([1]; IV, 2 mg/kg): 18.389 µM·h | Area under the curve AUG0-inf ([1]; PO, 10 mg/kg): 120.062 µM·h | Mean drug concentration in urine (0-24 h) Curine, 0-24 h ([1]; PO, 10 mg/kg): 38.915 µM | Vd [1, 14]: 1.09 L/kg | clearance [1, 14]: 4.2 mL/min/kg | half-life [1, 14]: 3.61 h | C0 [1, 14]: 42.2 µM | MRT inf [1, 14]: 4.01 h | bioavailability ([1]; male, cynomolgus monkey, plasma, po, 10 mg/kg, PO, 10 mg/kg, read-out: Bioavailability F): 131% | half-life [1, 12]: 3.34 h | Cmax [1, 12]: 46.1 µM | MRT inf [1, 12]: 3.76 h | Tmax [1, 12]: 0.83 h | Solid stability (conclusion) [11]: good stability | pIC50 (URAT-1): 4.98 | pIC50 (OAT-4; substrate 3H-estrone ammonium sulfate, read-out: IC50 of the inhibition on OAT-4 transporting 3H-ES (3H-estrone ammonium sulfate)): 4.77 | pIC50 (OAT-4; substrate 14C-uric acid, read-out: IC50 of the inhibition on OAT-4 transporting 14C-UA (14C-uric acid)): 5.10
Compound: O=C(O)CSc1nnc(Br)n1-c1c(Cl)cc(C2CC2)c2ccccc12 [Compound 1]

Compound: O=C(O)CSc1nncn1-c1ccc(C2CC2)c2ccccc12 [Compound M2]
Percentage of the administered dose ([6]; Faeces): 4.8% | Percentage of the administered dose ([6]; Urine): 0.3%

Compound: O=C(O)CSc1nnc(Br)n1-c1ccc(C2(O)CC2)c2ccccc12 [Compound M3]
Amount of lesinurad and metabolites (Total 100) (Liver cells [2]): not detected | Amount of lesinurad and metabolites (Total 100) (Liver cells [5]): 1.45% | Percentage of the administered dose ([6]; Faeces): 0.3% | Percentage of the administered dose ([6]; Urine): 12.0% | Amount of lesinurad and metabolites (Total 100) [7]: 7.9% | Amount of lesinurad and metabolites (Total 100) (Liver cells [8]): 2.24% | Amount of lesinurad and metabolites (Total 100) (Liver cells [10]): not detected

Compound: O=C(O)CSc1nnc(Br)n1-c1ccc(C2CC2)c2c1C=CC(O)C2O (centres unmarked) [Compound M4]
Amount of lesinurad and metabolites (Total 100) (Liver cells [2]): not detected | Amount of lesinurad and metabolites (Total 100) (Liver cells [5]): 0.47% | Percentage of the administered dose ([6]; Faeces): 5.0% | Percentage of the administered dose ([6]; Urine): 15.7% | Amount of lesinurad and metabolites (Total 100) (Liver cells [8]): 5.69% | Amount of lesinurad and metabolites (Total 100) (Liver cells [10]): not detected

Compound: O=C(O)CSc1nncn1-c1ccc(C2(O)CC2)c2ccccc12 [Compound M5]
Percentage of the administered dose ([6]; Faeces): 3.6%
